Results: ChEMBL document CHEMBL5465560, “Selectivity Literature for EUbOPEN Chemogenomic Library” (2024)
One block for each compound: values may come before it.

How the values were obtained:
[1] = biological target: T1, Serine/threonine-protein kinase ULK1 (Homo sapiens) (UniProt O75385); experiment: Selectivity interaction (Ambit KINOMEscan and KiNATiv profiling in Jurkat cells) EUB0000090b ULK1; format: cell-based; settings: at 1 µM
T1 sequence (whole entry): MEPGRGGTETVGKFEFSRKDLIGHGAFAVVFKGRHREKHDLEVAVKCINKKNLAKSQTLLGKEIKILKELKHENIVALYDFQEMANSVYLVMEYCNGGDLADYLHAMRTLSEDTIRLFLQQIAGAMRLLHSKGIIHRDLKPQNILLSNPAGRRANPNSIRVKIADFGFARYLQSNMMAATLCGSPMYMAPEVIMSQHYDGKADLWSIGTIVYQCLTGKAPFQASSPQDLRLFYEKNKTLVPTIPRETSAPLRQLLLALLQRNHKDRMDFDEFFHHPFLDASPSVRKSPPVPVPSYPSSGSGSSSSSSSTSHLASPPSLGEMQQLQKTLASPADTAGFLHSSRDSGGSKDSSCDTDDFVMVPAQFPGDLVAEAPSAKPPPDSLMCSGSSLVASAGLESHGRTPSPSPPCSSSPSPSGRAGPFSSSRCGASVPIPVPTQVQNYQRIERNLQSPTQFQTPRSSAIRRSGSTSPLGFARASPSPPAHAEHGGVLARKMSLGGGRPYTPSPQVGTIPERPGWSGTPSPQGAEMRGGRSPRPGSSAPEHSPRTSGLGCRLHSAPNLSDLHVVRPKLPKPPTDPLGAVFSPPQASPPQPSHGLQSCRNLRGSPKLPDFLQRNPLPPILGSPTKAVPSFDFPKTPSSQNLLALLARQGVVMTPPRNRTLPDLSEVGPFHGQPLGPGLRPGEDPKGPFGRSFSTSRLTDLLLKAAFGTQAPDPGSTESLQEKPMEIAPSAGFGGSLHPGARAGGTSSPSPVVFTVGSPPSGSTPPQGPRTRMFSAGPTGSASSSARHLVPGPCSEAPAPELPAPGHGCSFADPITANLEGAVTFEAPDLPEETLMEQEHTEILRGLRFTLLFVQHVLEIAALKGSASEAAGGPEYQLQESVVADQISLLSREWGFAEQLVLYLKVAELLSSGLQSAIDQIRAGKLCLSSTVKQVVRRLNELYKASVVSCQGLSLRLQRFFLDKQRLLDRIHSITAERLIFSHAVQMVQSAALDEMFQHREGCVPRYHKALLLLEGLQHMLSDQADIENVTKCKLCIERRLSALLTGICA

[2] = biological target: T2, MAP/microtubule affinity-regulating kinase 4 (Homo sapiens) (UniProt Q96L34); experiment: Selectivity interaction (ActivX KiNativ screen (kinase selectivity in THP-1 cell lysates)) EUB0000639a MARK4; format: subcellular; settings: lysate, at 0.2 µM
T2 sequence (whole entry): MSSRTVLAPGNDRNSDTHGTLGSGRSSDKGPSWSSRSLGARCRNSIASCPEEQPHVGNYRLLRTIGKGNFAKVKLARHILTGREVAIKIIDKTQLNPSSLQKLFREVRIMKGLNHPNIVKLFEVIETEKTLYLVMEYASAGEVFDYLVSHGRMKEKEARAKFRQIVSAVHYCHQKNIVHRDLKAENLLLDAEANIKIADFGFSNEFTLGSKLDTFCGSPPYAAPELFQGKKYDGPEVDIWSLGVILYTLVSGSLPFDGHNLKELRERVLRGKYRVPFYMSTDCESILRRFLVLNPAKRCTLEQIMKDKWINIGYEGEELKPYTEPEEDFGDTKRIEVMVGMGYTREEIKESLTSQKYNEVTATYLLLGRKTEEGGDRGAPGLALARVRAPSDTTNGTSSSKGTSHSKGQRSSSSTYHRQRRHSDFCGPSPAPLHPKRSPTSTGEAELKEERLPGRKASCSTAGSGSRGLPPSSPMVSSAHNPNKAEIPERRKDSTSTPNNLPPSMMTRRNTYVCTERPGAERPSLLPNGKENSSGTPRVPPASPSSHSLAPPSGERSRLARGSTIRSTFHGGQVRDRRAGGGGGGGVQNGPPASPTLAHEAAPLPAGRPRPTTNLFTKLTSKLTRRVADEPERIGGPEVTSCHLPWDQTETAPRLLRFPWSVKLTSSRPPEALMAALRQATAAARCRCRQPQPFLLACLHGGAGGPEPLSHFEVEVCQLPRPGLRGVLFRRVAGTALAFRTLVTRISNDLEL

CREB-binding protein = CREB-binding protein (Homo sapiens, UniProt Q92793); experiment: Selectivity interaction (Bromodomain panel (DSF asssay)) EUB0000270b CREBBP
CREB-binding protein, sequence (Q92793 2-2442 limits assumed): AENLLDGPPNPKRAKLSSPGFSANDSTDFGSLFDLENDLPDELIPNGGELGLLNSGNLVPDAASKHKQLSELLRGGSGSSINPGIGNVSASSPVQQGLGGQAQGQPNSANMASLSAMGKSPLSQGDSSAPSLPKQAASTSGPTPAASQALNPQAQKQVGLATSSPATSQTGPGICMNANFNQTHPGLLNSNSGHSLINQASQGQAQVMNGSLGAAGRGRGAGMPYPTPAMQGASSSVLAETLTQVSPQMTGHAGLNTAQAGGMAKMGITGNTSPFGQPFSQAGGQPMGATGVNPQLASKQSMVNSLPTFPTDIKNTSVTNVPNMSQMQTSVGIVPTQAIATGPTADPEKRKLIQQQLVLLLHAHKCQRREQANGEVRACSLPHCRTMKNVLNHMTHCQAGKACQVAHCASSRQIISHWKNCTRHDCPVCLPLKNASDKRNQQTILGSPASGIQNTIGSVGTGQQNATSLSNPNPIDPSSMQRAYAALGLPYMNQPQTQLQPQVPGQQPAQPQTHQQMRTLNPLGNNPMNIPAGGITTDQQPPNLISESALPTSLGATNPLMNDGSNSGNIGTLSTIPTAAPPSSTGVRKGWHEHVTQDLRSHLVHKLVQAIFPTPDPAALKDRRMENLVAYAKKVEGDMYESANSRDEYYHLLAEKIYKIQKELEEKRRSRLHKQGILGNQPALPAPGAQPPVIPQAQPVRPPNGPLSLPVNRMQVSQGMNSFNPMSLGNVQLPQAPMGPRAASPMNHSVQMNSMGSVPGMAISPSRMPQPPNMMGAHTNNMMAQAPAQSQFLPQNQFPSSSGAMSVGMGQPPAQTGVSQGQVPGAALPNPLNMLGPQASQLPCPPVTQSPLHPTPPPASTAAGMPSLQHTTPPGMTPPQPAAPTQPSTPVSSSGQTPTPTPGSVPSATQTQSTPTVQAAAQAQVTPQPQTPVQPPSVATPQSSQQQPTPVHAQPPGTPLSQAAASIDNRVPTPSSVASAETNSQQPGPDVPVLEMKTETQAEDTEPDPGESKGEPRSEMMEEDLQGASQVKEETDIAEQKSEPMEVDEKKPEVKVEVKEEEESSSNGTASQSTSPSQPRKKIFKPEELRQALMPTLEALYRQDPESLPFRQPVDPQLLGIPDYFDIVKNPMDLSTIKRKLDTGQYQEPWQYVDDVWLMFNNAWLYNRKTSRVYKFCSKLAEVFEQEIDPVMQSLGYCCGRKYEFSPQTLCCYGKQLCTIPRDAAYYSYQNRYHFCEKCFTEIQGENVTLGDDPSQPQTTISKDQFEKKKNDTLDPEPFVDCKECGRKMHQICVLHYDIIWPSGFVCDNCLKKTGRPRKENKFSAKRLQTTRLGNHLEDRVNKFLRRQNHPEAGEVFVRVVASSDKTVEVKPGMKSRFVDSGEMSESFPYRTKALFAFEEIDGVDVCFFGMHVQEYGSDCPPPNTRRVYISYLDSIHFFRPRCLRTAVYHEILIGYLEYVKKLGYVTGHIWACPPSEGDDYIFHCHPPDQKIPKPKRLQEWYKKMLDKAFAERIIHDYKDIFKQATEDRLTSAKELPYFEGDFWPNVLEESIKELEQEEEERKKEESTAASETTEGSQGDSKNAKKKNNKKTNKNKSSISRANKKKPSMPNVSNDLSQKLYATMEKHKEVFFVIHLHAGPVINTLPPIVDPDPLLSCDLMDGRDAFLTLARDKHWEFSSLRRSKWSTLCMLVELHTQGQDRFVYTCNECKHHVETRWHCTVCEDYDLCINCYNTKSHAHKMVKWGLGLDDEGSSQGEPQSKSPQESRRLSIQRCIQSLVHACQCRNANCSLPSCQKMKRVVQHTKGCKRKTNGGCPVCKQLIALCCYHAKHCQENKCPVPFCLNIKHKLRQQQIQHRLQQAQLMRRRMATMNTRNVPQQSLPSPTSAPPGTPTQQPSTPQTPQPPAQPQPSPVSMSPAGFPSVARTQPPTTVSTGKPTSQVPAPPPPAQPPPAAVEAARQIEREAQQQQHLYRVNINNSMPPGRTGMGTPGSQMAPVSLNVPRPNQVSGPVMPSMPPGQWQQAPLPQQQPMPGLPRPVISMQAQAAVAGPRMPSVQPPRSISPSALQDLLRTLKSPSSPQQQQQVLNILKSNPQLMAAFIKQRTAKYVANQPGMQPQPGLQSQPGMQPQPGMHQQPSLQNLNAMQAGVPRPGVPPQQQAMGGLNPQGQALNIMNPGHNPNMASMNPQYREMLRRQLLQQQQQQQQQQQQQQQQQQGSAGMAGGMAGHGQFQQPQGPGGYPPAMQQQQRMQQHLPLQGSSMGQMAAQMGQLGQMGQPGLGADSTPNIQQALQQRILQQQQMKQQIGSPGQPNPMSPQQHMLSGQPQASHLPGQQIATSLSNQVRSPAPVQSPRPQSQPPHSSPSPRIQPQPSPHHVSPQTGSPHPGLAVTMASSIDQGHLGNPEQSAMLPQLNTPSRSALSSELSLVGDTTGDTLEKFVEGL

[3] = biological target: D(4) dopamine receptor (Homo sapiens) (UniProt P21917); experiment: Selectivity interaction (Eurofins CEREP Diversity Profile (receptors and ion channels)) EUB0000279b DRD4; settings: at 10 µM
D(4) dopamine receptor (Homo sapiens), sequence (P21917 whole entry): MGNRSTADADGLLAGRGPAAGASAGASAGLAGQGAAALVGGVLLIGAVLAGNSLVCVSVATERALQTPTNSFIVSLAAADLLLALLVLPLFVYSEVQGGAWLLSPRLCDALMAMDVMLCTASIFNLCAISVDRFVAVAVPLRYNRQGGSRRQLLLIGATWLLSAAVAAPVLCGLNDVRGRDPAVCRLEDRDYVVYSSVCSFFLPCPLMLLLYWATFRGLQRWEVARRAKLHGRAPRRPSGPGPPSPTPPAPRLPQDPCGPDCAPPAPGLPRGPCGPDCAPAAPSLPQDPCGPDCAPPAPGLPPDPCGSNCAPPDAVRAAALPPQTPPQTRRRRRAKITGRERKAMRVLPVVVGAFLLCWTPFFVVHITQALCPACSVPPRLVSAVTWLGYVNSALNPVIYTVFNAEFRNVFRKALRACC

[4] = biological target: Serine/threonine-protein kinase WNK3 (Homo sapiens) (UniProt Q9BYP7); experiment: Selectivity interaction (KinomeScan (DiscoverX)) EUB0000229b WNK3; settings: at 10 µM
[5] = biological target: Serine/threonine-protein kinase MRCK gamma (Homo sapiens) (UniProt Q6DT37); experiment: Selectivity interaction (KinomeScan (DiscoverX)) EUB0001079a CDC42BPG; settings: at 1 µM
Serine/threonine-protein kinase MRCK gamma (Homo sapiens), sequence (Q6DT37 whole entry): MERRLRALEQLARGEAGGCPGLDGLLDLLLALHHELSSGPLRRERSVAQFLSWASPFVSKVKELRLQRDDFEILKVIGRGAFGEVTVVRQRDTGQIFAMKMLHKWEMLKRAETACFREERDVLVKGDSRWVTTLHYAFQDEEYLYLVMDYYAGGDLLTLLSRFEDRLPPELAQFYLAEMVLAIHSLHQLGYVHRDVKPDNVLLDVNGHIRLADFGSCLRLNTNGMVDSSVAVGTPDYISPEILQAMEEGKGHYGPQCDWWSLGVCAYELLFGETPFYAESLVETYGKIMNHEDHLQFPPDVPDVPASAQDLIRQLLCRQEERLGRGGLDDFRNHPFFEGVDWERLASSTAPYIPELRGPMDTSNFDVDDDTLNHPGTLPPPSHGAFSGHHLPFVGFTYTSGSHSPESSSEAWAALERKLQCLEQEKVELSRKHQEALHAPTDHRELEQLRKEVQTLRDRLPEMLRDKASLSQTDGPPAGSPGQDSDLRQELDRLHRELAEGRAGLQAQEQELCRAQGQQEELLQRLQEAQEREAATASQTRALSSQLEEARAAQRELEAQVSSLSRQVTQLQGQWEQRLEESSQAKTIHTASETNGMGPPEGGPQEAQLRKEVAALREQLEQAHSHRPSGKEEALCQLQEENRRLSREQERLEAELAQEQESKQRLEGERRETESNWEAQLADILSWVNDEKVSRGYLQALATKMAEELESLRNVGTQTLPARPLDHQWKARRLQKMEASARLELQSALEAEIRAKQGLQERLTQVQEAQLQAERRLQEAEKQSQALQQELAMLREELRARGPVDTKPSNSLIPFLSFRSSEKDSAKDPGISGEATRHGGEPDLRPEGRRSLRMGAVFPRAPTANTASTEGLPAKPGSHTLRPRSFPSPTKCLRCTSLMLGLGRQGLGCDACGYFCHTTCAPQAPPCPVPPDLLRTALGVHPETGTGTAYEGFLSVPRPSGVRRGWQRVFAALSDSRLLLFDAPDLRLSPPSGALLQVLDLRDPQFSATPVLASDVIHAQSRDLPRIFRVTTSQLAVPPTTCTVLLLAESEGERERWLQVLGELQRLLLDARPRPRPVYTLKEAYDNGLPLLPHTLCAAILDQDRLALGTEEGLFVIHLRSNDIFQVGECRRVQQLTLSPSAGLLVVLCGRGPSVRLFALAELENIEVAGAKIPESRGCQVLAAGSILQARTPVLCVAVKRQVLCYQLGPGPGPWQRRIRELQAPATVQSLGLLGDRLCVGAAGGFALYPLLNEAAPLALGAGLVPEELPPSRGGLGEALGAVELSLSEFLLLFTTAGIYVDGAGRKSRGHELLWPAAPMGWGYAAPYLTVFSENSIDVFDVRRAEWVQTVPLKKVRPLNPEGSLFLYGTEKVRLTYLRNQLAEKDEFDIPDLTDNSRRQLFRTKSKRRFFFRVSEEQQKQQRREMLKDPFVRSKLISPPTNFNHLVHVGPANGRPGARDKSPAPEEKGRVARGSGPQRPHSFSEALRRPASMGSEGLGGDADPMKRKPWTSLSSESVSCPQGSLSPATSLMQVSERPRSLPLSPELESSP

[6] = biological target: Serine/threonine-protein kinase 32A (Homo sapiens) (UniProt Q8WU08); experiment: Selectivity interaction (KinomeScan (DiscoverX)) EUB0000092b STK32A; settings: at 10 µM
Serine/threonine-protein kinase 32A (Homo sapiens), sequence (Q8WU08 whole entry): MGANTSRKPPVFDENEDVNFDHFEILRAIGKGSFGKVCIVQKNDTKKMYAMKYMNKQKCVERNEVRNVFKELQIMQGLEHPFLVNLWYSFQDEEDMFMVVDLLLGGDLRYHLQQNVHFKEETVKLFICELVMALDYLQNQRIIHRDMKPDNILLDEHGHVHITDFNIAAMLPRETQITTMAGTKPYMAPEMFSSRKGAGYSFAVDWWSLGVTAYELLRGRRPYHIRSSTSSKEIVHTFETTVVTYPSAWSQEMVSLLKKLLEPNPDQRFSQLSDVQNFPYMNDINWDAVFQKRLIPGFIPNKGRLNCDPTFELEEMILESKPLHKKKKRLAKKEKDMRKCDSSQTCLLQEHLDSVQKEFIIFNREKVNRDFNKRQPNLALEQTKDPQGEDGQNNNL

[7] = biological target: T3, Serine/threonine-protein kinase Nek3 (Homo sapiens) (UniProt P51956); experiment: Selectivity interaction (KinomeScan (DiscoverX)) EUB0000045b NEK3
T3 sequence (whole entry): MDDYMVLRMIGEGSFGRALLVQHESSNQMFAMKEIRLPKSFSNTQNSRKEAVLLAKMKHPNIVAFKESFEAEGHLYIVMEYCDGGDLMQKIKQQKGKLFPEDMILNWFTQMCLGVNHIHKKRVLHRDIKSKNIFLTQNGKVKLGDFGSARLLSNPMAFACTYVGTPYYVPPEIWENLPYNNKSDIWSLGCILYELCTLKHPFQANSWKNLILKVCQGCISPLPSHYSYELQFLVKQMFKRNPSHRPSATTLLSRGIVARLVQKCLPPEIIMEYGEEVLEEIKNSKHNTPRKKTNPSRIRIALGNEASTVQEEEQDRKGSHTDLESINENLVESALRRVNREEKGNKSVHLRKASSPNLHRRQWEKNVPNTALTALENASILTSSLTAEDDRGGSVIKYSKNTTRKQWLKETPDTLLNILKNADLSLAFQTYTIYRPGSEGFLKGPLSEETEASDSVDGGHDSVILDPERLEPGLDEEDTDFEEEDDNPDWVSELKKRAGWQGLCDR

[8] = biological target: Tyrosine-protein kinase ABL1 (Homo sapiens, UniProt P00519); experiment: Selectivity interaction (Kinase panel (DSF assay)) EUB0001558a ABL1

Structure (SMILES): CN(C)C/C=C/C(=O)Nc1ccc(C(=O)N2CCCC(Nc3ncc(Cl)c(-c4c[nH]c5ccccc45)n3)C2)cc1 (stereo not given)
% of control [1]: 88%

% of inhibition [2]: 13.2%
Structure (SMILES): CC[C@@H]1[C@H](F)C(=O)N[C@@H]1COc1nccc2cc(C(N)=O)c(OC)cc12 [ZIMLOVISERTIB]

dTM (CREB-binding protein): -1.89 K
Structure (SMILES): Cc1cc(CN)cc(C)c1-c1ncn(C)c1-c1cncn1C

% of control [3]: 103%
Structure (SMILES): CC(=O)c1cc(-c2ccccc2OCC2CC2)c2ncccn12

Structure (SMILES): COc1cc(N(C)c2ccnc3ccc(C(F)(F)F)cc23)cc(OC)c1OC
% binding [4]: 80%

Structure (SMILES): Nc1cnc(N2CCc3cc(S(=O)(=O)Nc4c(F)cc(Cl)cc4F)cc(N4CCCC4=O)c32)nc1 [TP-020n]
% of control [5]: 100%

Structure (SMILES): CCC(=O)N1CCN(c2ccc(-n3c(=O)ccc4cnc5ccc(-c6cnc7ccccc7c6)cc5c43)cc2C(F)(F)F)CC1
% of control [6]: 100%

Structure (SMILES): C=CC(=O)Nc1cc(-n2c(=O)ccc3cnc4ccc(-c5ccc(NS(C)(=O)=O)cc5)cc4c32)ccc1C
% of control ([7]; at 1 µM): 98%
% of control ([7]; at 10 µM): 100%

Structure (SMILES): CC(C)(O)[C@H](F)CN1Cc2cc(NC(=O)c3cnn4cccnc34)c(N3CCOCC3)cc2C1=O
dTM [8]: 1.7 K
